System: T-24 human bladder cancer cells
Experiment: Cell death of T-24 cells after anti-viral treatment, flow cytometry
Type: cell-based
Details: 10 μM efavirenz, 48 hours, vs methanol control
Experimental: T-24 human bladder cells were grown in a 12 well plate in a total volume of 2 mL of 10% FBS complete RPMI. Cells were left untreated or treated with 2 μL of methanol (Sigma-Aldrich) or treated with 10 μM efavirenz (Toronto Research Chemicals Cat# E425000). Cells were grown in CO2 incubator at 37° C. for 48 hours. After 48 hours, cells were harvested and counted using trypan blue on a hemocytometer.
The human bladder cancer T24 cell line was used to determine the effects of and anti-viral treatment on human tumor cells infected with plant virus. The T24 cells were grown in culture and then treated or not with the anti-reverse transcriptase drug, efavirenz, for twenty four or forty eight hours. Cell death assays were performed in triplicate. […] It is expected that treatment of the bladder cancer cells with a TLR activator to activate new virus replication in combination with the anti-viral drug will be useful in increasing cell death further. FIG. 2a depicts flow cytometer results on T-24 Human bladder cancer cells treated with efavirenz or methanol control for 48 hours. FIG. 2b is a bar graph depiction of the data.

## O=C1Nc2ccc(Cl)cc2[C@@](C#CC2CC2)(C(F)(F)F)O1 [efavirenz]
  cell death: increased death
Listed as Efavirenz
  cell death: effective in killing a percentage of the cells
